# Laboratory results published in patent US9321773B2, “Compounds” (Respivert Ltd, priority 2009, dated 2016).
# Read-outs that look alike come from different tables or passages of the source.
# Experiments:
# recombinant PI3 kinase δ = recombinant PI3 kinase δ (Homo sapiens (Human), UniProt O00329); assay: Enzyme Inhibition Assay (HTRF PI3K enzyme assay, TR-FRET); assay type: biochemical
# In short: (§1)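 TR-FRET readout after 15-18 hr at RT with biotinylated PIP3, GST-tagged GRP1 PH domain and europium/APC fluorophores; product PIP3 displaces the tracer and lowers the signal. Beforehand, compound and PIP2 were reacted for 2 hr at RT with human recombinant PI3Kα, δ or γ.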
# recombinant PI3 kinase γ = recombinant PI3 kinase γ (Homo sapiens (Human), UniProt P48736); assay: as above; assay type: biochemical
# In short: as §1
# recombinant PI3 kinase α = recombinant PI3 kinase α (Homo sapiens (Human), UniProt P42336); assay: as above; assay type: biochemical
# In short: as §1
# [1] = system: PMA-differentiated U937 cells; assay: MTT Assay (cell viability); assay type: cell-based, Human; conditions: percentage loss of cell viability; for Cell Viability MTT Assay in D-U937 cells at 4 hr: 4 hr in 5% FCS; for Cell Viability MTT Assay in D-U937 cells at 24 hr: 24 hr in 10% FCS
# In short: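 Differentiated U937 cells treated with compound for 4 hr (5% FCS) or 24 hr (10% FCS), then given MTT for 1 hr; formazan dissolved in DMSO and absorbance read at 550 nm. Viability loss expressed as % versus 0.5% DMSO vehicle.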
# [2] = system: LPS induced neutrophilia in mouse lung; assay: LPS-Induced Neutrophilia in the Mouse; assay type: in vivo; conditions: for % Inhibition of neutrophils in BAL at the dose indicated (mg/mL) (0.05): 0.05 mg/mL intra-tracheal; for % Inhibition of neutrophils in BAL at the dose indicated (mg/mL) (0.05) / % Inhibition of neutrophils in BAL at the dose indicated (mg/mL) (0.2) / % Inhibition of neutrophils in BAL at the dose indicated (mg/mL) (1.0): 2 hr before LPS challenge; for % Reduction of inhibition at 8 hr compared with 2 hr: 0.2 mg/mL dose; for % Reduction of inhibition at 8 hr compared with 2 hr / % Inhibition at 0.2 mg/mL dose at time indicated (hr) (2) / % Inhibition at 0.2 mg/mL dose at time indicated (hr) (8): mouse lung; for % Inhibition of neutrophils in BAL at the dose indicated (mg/mL) (0.2): 0.2 mg/mL intra-tracheal; for % Inhibition at 0.2 mg/mL dose at time indicated (hr) (2): dosed 2 hr before LPS challenge; for % Inhibition at 0.2 mg/mL dose at time indicated (hr) (8): dosed 8 hr before LPS challenge; for % Inhibition of neutrophils in BAL at the dose indicated (mg/mL) (1.0): 1.0 mg/mL intra-tracheal; for inhibition of LPS-induced neutrophilia (neutrophil influx into the lung), in words: intra-tracheal dosing before LPS challenge
# Procedure: Non-fasted mice were dosed by the intra-tracheal route with either vehicle, or the test substance at the time points (“pre-dose”) indicated with respect to the start of LPS treatment. At T=0, mice were placed into an exposure chamber and exposed to LPS. Eight hr after LPS challenge, animals were anesthetized, the trachea cannulated and BALF extracted by infusing and withdrawing 1 mL of PBS into the lungs via a tracheal catheter. Total and differential white cell counts in the BALF samples were measured using a Neubaur haemocytometer. Cytospin smears of the BALF samples were prepared by centrifugation at 200 rpm for 5 min at RT and stained using a DiffQuik stain system (Dade Behring). Cells were counted using oil immersion microscopy.
# [3] = system: H2O2 induced pAkt in D-U937 cells; assay: PI3Kδ Cell Based Assay (H2O2 induced pAkt); conditions: Homo sapiens
# In short: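 Read-out is the pAkt/total Akt signal ratio, measured with anti-pAkt and anti-pan-Akt antibodies after H2O2 stimulation. Cells were U937 monocytes given PMA (100 ng/mL) for 48 to 72 hr. IC50 values fitted from compound serial dilutions.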
# [4] = Stereochemical analysis by chiral stationary phase HPLC (atropisomerism); assay type: physicochemical; conditions: chiral stationary phase HPLC (16 different conditions for the examples)
# Procedure: Each of these mobile phase are compatible with the column packings referred to above, providing sixteen different solvent and stationary phase permutations. Modifiers such as triethylamine (0.1%), formic acid (0.1%) may be added to improve the resolution
# Semi-preparative Chiral Stationary Phase LC-UV was performed on a Gilson preparative modular system using a Daicel Chiralpak AD semi-prep column ([…], 20×250 mm) and a flow rate of 18 mL/min eluting with an isocratic method over 20 min using […] heptane:IPA and 0.1% triethylamine employing an injection volume of 1.0 mL.
# [5] = activity range, read-out: PI3 Kinase Inhibition IC50 values at stated Isozyme δ
# [6] = activity range, read-out: PI3 Kinase Inhibition IC50 values at stated Isozyme γ
# [7] = read-out: PI3 Kinase Inhibition IC50 values at stated Isozyme (nM) γ
# [8] = activity range, read-out: PI3 Kinase Inhibition IC50 values at stated Isozyme α
# [9] = dU937, activity range, D-U937 cells, read-out: Cellular Activity IC50 values (H2O2 induced pAkt D-U937 Cells)
# [10] = dU937, read-out: Cellular Activity IC50 values (H2O2 induced pAkt D-U937 Cells)
# Chain of recombinant PI3 kinase δ (O00329 whole entry, the tested form may be a part): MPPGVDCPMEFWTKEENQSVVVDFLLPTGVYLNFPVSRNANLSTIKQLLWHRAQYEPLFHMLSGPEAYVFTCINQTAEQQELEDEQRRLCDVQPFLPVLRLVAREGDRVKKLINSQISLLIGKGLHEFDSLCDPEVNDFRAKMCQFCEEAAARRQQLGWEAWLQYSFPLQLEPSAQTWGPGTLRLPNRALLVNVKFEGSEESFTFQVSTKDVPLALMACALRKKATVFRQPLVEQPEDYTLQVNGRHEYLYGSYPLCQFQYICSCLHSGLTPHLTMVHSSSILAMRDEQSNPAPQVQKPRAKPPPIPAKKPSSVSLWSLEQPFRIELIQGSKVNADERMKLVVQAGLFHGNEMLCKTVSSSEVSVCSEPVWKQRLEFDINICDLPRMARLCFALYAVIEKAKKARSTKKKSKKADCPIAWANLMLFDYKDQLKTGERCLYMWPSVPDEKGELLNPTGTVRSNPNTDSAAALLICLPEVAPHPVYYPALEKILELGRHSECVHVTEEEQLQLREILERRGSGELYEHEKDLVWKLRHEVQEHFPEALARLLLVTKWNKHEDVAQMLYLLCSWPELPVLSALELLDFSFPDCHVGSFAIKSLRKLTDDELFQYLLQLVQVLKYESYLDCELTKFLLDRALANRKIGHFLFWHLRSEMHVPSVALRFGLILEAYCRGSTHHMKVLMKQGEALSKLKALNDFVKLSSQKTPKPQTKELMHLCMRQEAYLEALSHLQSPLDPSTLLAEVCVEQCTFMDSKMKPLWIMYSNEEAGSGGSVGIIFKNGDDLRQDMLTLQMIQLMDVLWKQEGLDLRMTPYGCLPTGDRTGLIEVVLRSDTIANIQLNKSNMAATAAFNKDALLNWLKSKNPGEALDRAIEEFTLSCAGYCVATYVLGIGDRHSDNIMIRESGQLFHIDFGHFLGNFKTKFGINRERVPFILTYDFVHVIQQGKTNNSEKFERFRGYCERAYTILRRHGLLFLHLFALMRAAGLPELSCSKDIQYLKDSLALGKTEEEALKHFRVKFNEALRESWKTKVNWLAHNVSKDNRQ
# Chain of recombinant PI3 kinase δ (P27986 whole entry partner, the tested form may be a part): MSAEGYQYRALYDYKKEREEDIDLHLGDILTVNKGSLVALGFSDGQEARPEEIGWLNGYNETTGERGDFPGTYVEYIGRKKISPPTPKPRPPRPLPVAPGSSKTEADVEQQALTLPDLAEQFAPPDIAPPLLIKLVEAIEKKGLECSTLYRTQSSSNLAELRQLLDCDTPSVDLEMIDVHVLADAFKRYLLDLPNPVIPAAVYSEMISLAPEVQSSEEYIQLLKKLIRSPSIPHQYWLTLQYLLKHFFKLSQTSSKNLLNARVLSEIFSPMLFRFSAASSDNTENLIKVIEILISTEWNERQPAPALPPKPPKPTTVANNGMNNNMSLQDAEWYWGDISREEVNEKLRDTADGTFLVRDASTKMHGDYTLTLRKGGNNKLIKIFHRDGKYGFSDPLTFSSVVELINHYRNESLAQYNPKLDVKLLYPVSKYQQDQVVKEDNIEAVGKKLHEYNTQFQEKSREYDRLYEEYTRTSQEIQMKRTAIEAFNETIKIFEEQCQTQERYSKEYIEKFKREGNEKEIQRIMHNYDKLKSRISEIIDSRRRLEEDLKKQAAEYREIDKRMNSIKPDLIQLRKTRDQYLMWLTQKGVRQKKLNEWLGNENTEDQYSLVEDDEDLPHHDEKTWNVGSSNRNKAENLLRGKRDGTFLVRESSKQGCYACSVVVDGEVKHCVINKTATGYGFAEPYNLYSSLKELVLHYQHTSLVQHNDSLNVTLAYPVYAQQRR
# Chain of recombinant PI3 kinase α (P42336 whole entry): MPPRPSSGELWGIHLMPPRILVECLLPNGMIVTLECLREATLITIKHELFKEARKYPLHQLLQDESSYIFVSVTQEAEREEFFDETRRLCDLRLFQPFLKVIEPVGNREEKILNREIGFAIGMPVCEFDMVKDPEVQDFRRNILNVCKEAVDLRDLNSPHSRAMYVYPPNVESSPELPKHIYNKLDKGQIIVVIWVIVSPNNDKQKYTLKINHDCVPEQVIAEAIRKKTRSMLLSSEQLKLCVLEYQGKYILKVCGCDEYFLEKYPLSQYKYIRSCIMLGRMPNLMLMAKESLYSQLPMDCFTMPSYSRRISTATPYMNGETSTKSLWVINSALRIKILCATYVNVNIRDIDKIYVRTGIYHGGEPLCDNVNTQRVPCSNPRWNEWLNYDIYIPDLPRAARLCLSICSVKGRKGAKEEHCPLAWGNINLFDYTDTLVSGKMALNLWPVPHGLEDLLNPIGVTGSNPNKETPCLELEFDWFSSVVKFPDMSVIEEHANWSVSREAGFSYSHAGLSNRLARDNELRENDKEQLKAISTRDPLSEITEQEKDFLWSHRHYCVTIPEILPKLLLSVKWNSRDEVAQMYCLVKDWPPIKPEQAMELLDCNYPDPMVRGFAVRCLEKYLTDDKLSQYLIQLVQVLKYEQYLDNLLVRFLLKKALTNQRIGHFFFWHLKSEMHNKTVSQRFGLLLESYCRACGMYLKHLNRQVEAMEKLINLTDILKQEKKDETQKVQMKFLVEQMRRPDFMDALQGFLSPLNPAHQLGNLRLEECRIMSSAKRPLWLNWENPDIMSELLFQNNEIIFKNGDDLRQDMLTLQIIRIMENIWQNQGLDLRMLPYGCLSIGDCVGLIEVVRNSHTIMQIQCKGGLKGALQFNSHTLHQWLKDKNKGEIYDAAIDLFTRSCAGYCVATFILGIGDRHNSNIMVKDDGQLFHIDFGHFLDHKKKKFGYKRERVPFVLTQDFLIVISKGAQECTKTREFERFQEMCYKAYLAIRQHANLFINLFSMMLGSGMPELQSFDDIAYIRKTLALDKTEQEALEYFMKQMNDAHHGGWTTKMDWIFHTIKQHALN
# Chain of recombinant PI3 kinase α (P27986 whole entry partner): as the sequence (P27986 whole entry partner, the tested form may be a part) above
# Chain of recombinant PI3 kinase γ (P48736 whole entry): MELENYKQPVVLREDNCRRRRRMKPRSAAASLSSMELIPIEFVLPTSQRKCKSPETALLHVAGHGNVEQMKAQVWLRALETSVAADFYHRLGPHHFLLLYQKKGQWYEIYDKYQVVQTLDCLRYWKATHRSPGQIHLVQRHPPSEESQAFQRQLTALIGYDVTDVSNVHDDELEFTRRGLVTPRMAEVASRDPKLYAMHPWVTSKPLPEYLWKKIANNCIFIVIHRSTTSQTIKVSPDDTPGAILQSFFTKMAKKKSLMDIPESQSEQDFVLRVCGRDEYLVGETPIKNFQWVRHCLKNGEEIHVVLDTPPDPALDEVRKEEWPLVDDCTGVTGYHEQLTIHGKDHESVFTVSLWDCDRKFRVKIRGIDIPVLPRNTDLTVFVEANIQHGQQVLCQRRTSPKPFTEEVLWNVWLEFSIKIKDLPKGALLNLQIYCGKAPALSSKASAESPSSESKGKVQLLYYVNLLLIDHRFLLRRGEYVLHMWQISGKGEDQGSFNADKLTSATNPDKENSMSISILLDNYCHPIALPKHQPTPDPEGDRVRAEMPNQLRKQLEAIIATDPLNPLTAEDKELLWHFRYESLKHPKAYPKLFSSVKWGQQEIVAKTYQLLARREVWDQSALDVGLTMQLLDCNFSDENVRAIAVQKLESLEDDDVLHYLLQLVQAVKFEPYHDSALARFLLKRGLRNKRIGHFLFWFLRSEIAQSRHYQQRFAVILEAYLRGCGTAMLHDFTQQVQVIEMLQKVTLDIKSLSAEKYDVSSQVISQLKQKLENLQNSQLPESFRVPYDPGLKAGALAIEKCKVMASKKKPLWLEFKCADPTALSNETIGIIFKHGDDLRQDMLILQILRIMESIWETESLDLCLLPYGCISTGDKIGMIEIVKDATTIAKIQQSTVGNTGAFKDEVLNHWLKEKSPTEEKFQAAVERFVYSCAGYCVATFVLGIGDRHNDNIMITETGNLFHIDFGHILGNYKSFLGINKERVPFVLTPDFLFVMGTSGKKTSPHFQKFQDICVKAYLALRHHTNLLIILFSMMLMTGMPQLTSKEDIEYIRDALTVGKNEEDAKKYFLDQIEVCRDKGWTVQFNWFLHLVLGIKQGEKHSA
Structure (SMILES),IC50 (recombinant PI3 kinase δ; [5]),IC50 (recombinant PI3 kinase δ; read-out: PI3 Kinase Inhibition IC50 values at stated Isozyme (nM) δ),IC50 (recombinant PI3 kinase γ; [6]),IC50 (recombinant PI3 kinase γ; [7]),IC50 (recombinant PI3 kinase α; [8]),IC50 (recombinant PI3 kinase α; read-out: PI3 Kinase Inhibition IC50 values at stated Isozyme (nM) α),Cell Viability MTT Assay in D-U937 cells at 4 hr [1],Cell Viability MTT Assay in D-U937 cells at 24 hr [1],% Inhibition of neutrophils in BAL at the dose indicated (mg/mL) (0.05) ([2]; mouse),% Reduction of inhibition at 8 hr compared with 2 hr [2],% Inhibition of neutrophils in BAL at the dose indicated (mg/mL) (0.2) ([2]; mouse),% Inhibition at 0.2 mg/mL dose at time indicated (hr) (2) [2],% Inhibition at 0.2 mg/mL dose at time indicated (hr) (8) [2],% Inhibition of neutrophils in BAL at the dose indicated (mg/mL) (1.0) ([2]; mouse),"inhibition of LPS-induced neutrophilia (neutrophil influx into the lung), in words ([2]; mouse)","level of anti-inflammatory activity at the 8 hr time point relative to value 2 hr after drug treatment ([2]; same dose, LPS challenge, mouse)","IC50 [3, 9]","IC50 ([3]; dU937, read-out: Cellular Activity IC50 values (H2O2 induced pAkt (nM) D-U937 Cells))",atropisomerism by chiral stationary phase HPLC [4],"IC50 [3, 10]"
"Nc1ncnc2c1c(-c1ccc(O)cc1)nn2Cc1nc2cccc(C#CCCCC(=O)N3CCOCC3)c2c(=O)n1Cc1ccccc1Cl [Example 5, 2-((4-Amino-3-(4-hydroxyphenyl)-1H-pyrazolo[3,4-d]pyrimidin-1-yl)methyl)-3-(2-chlorobenzyl)-5-(6-morpholino-6-oxohex-1-yn-1-yl)quinazolin-4(3H)-one]",< 50 nM,20 nM,< 50 nM,16 nM,< 50 nM,20 nM,− (− <30%),− (− <30%),4.8%,44%,37.7%,37.7%,21.2%,58.5%,dose dependent inhibition,over half of its original value,< 10 nM,0.58 nM,,
"Nc1ncnc2c1c(-c1ccc(O)cc1)nn2Cc1nc2cccc(C#CCCCC(=O)O)c2c(=O)n1Cc1ccccc1Cl [Example 4, 6-(2-((4-Amino-3-(4-hydroxyphenyl)-1H-pyrazolo[3,4-d]pyrimidin-1-yl)methyl)-3-(2-chlorobenzyl)-4-oxo-3,4-dihydroquinazolin-5-yl)hex-5-ynoic acid]",,,< 50 nM,20 nM,,,− (− <30%),− (− <30%),3.2%,73%,47.2%,47.2%,12.9%,64.6%,dose dependent inhibition,,,,,
"C#Cc1cccc2nc(Cn3nc(-c4ccc(O)cc4)c4c(N)ncnc43)n(Cc3ccc(F)cc3)c(=O)c12 [Example 38, 2-((4-Amino-3-(4-hydroxyphenyl)-1H-pyrazolo[3,4-d]pyrimidin-1-yl)methyl)-5-ethynyl-3-(4-fluorobenzyl) quinazolin-4(3H)-one]",< 50 nM,,50 to 1000 nM,,50 to 1000 nM,,− (− <30%),− (− <30%),,,,,,,,,< 10 nM,,no evidence for atropisomerism was observed,
"C#Cc1cccc2nc(Cn3nc(-c4ccc(O)cc4)c4c(N)ncnc43)n(Cc3cccc(Cl)c3)c(=O)c12 [Example 11, 2-((4-Amino-3-(4-hydroxyphenyl)-1H-pyrazolo[3,4-d]pyrimidin-1-yl)methyl)-3-(3-chlorobenzyl)-5-ethynyl quinazolin-4(3H)-one]",< 50 nM,,50 to 1000 nM,,50 to 1000 nM,,− (− <30%),− (− <30%),,,,,,,,,,,no evidence for atropisomerism was observed,< 10 nM
"C#Cc1cccc2nc(Cn3nc(-c4ccc(O)cc4)c4c(N)ncnc43)n(Cc3cccc(Cl)c3F)c(=O)c12 [Example 33, 2-((4-Amino-3-(4-hydroxyphenyl)-1H-pyrazolo[3,4-d]pyrimidin-1-yl)methyl)-3-(3-chloro-2-fluorobenzyl)-5-ethynylquinazolin-4(3H)-one]",< 50 nM,,50 to 1000 nM,,50 to 1000 nM,,− (− <30%),− (− <30%),,,,,,,,,< 10 nM,,no evidence for atropisomerism was observed,
"C#Cc1cccc2nc(Cn3nc(-c4ccc(O)cc4)c4c(N)ncnc43)n(Cc3cccc(C(F)(F)F)c3)c(=O)c12 [Example 16, 2-((4-Amino-3-(4-hydroxyphenyl)-1H-pyrazolo[3,4-d]pyrimidin-1-yl)methyl)-5-ethynyl-3-(3-(trifluoromethyl)benzyl)quinazolin-4(3H)-one]",< 50 nM,,50 to 1000 nM,,50 to 1000 nM,,− (− <30%),− (− <30%),,,,,,,,,< 10 nM,,no evidence for atropisomerism was observed,
"C#Cc1cccc2nc(Cn3nc(-c4cccc(O)c4)c4c(N)ncnc43)n(Cc3cccc(C#N)c3)c(=O)c12 [Example 24, 3-((2-((4-Amino-3-(3-hydroxyphenyl)-1H-pyrazolo[3,4-d]pyrimidin-1-yl)methyl)-5-ethynyl-4-oxoquinazolin-3(4H)-yl)methyl)benzonitrile]",< 50 nM,,50 to 1000 nM,,50 to 1000 nM,,− (− <30%),− (− <30%),,,,,,,,,< 10 nM,,no evidence for atropisomerism was observed,
"C#Cc1cccc2nc(Cn3nc(-c4ccc(O)cc4)c4c(N)ncnc43)n(Cc3ccccc3Cl)c(=O)c12 [Example 9, 2-((4-Amino-3-(4-hydroxyphenyl)-1H-pyrazolo[3,4-d]pyrimidin-1-yl)methyl)-3-(2-chlorobenzyl)-5-ethynyl quinazolin-4(3H)-one]",< 50 nM,,50 to 1000 nM,,50 to 1000 nM,,− (− <30%),− (− <30%),,,,,,,,,,,no evidence for atropisomerism was observed,< 10 nM
